Patent publication US12643871B2, “Aryl formamide compound containing chiral sulfur oxide or salt thereof, preparation method, herbicidal composition and use thereof” (Qingdao Kingagroot Chemical Compound Co., Ltd., priority 2019, dated 2026)

Tests used:
Amaranthus retroflexus = experiment: Weeding effect in post-emergence stage; format: in vivo; settings: 250 g/ha; 2 leaf stage; 15 days after application; fresh weight control rate
Description: (§1) The activity level criteria for harmful plant damage (i.e., growth control rate) are as follows: • Level 5: growth control rate is above 85%; • Level 4: growth control rate is greater than or equal to 60% and less than 85%; • Level 3: growth control rate is greater than or equal to 40% and less than 60%; • Level 2: growth control rate is greater than or equal to 20% and less than 40%; • Level 1: growth control rate is greater than or equal to 5% and less than 20%; • Level 0: growth control rate is less than 5%.
(§2) The above growth control rates are fresh weight control rates.
(§3) Experiment on weeding effect in post-emergence stage: monocotyledonous and dicotyledonous weed seeds (Descurainia sophia, Capsella bursa-pastoris, Galium aparine, Stellaria media, Lithospermum arvense, Rorippa indica, Alopecurus aequalis, Beckmannia syzigachne, Sclerochloa dura, Phleum paniculatum, Bromus japonicus, Aegilops tauschii, Phalaris arundinacea, Amaranthus retroflexus, Chenopodiaceae, Commelina communis, Sonchus arvensis, convolvulus arvensis, Cirsium setosum, Solanum nigrum, Acalypha australis, Digitaria sanguinalis, Echinochloa crusgalli, Setaria viridis, Setaria glauca, Leptochloa chinensis, Monochoria vaginalis, Sagittaria trifolia, Scirpus juncoides, Cyperus rotundus, Cyperus iria, Cyperus difformis, Fimbristylis, Portulaca oleracea, Xanthium sibiricum, Pharbitis nil) and major crop seeds (wheat, corn, rice, soybean, cotton, oilseed rape, millet, sorghum, potato, sesame, ricinus) were placed in plastic pots filled with soil, then covered with 0.5-2 cm of soil, allowed to grow in a good greenhouse environment. After 2 weeks of sowing, the test plants were treated in the 2 leaf stage. The tested compounds of the present invention were respectively dissolved in acetone, then added with Tween 80 and 1.5 liter/ha of emulsifiable concentrate of methyl oleate as synergist, diluted with a certain amount of water to obtain a solution with a certain concentration, and sprayed with a spray tower onto the plants. After the application, the plants were cultured for 15 days in the greenhouse, and then the experimental results of the weeding were counted. The doses of the used compounds were 500, 250, 125, 60, 30, 15 g/ha, and the averages were obtained by repeating for three times.

Echinochloa crusgali = experiment: Weeding effect in post-emergence stage; format: in vivo; settings: 250 g/ha; 2 leaf stage; 15 days after application; fresh weight control rate
Description: as §1, §2, §3

COc1c(C(=O)Nc2nnc(C)o2)ccc(C(F)(F)F)c1[S@+]([O-])CCO[Si](C)(C)C(C)(C)C [Compound 349]
weeding effect in post-emergence stage, activity level (growth control rate), Amaranthus retroflexus (Amaranthus retroflexus): 5 (Level 5: growth control rate is above 85%)
weeding effect in post-emergence stage, activity level (growth control rate), Echinochloa crusgali (Echinochloa crusgali): 5 (Level 5: growth control rate is above 85%)

C#CC[S@@+]([O-])c1c(S(C)(=O)=O)ccc(C(=O)Nc2nnnn2C)c1C [Compound 517]
weeding effect in post-emergence stage, activity level (growth control rate), Amaranthus retroflexus (Amaranthus retroflexus): 5 (Level 5: growth control rate is above 85%)
weeding effect in post-emergence stage, activity level (growth control rate), Echinochloa crusgali (Echinochloa crusgali): 5 (Level 5: growth control rate is above 85%)

Cc1nnc(NC(=O)c2ccc(S(C)(=O)=O)c([S@+]([O-])CC3CC3)c2C)o1 [Compound 498]
weeding effect in post-emergence stage, activity level (growth control rate), Amaranthus retroflexus (Amaranthus retroflexus): 5 (Level 5: growth control rate is above 85%)
weeding effect in post-emergence stage, activity level (growth control rate), Echinochloa crusgali (Echinochloa crusgali): 5 (Level 5: growth control rate is above 85%)

Cc1nnc(NC(=O)c2ccc(C)c([S@+]([O-])CC(C)C)c2C)o1 [Compound 484]
weeding effect in post-emergence stage, activity level (growth control rate), Amaranthus retroflexus (Amaranthus retroflexus): 5 (Level 5: growth control rate is above 85%)
weeding effect in post-emergence stage, activity level (growth control rate), Echinochloa crusgali (Echinochloa crusgali): 5 (Level 5: growth control rate is above 85%)

Cc1nnc(NC(=O)c2ccc(C(F)(F)F)c([S@+]([O-])CCC=O)c2F)o1 [Compound 192]
weeding effect in post-emergence stage, activity level (growth control rate), Amaranthus retroflexus (Amaranthus retroflexus): 5 (Level 5: growth control rate is above 85%)
weeding effect in post-emergence stage, activity level (growth control rate), Echinochloa crusgali (Echinochloa crusgali): 5 (Level 5: growth control rate is above 85%)

CC[S@@+]([O-])c1c(C(F)(F)F)ccc(C(=O)Nc2ncnn2C)c1OC [Compound 471]
weeding effect in post-emergence stage, activity level (growth control rate), Amaranthus retroflexus (Amaranthus retroflexus): 5 (Level 5: growth control rate is above 85%)
weeding effect in post-emergence stage, activity level (growth control rate), Echinochloa crusgali (Echinochloa crusgali): 5 (Level 5: growth control rate is above 85%)

COc1c(C(=O)Nc2nnc(C)o2)ccc(C(F)(F)F)c1[S@+]([O-])Cc1cn(C)nc1C [Compound 356]
weeding effect in post-emergence stage, activity level (growth control rate), Amaranthus retroflexus (Amaranthus retroflexus): 5 (Level 5: growth control rate is above 85%)
weeding effect in post-emergence stage, activity level (growth control rate), Echinochloa crusgali (Echinochloa crusgali): 5 (Level 5: growth control rate is above 85%)

Cc1nnc(NC(=O)c2ccc(C(F)(F)F)c([S+]([O-])[Si](C)(C)C)c2F)o1 (stereo not shown) [Compound 206]
weeding effect in post-emergence stage, activity level (growth control rate), Amaranthus retroflexus (Amaranthus retroflexus): 5 (Level 5: growth control rate is above 85%)
weeding effect in post-emergence stage, activity level (growth control rate), Echinochloa crusgali (Echinochloa crusgali): 5 (Level 5: growth control rate is above 85%)

C=CC[S@@+]([O-])c1c(S(C)(=O)=O)ccc(C(=O)Nc2nnnn2C)c1C [Compound 516]
weeding effect in post-emergence stage, activity level (growth control rate), Amaranthus retroflexus (Amaranthus retroflexus): 5 (Level 5: growth control rate is above 85%)
weeding effect in post-emergence stage, activity level (growth control rate), Echinochloa crusgali (Echinochloa crusgali): 5 (Level 5: growth control rate is above 85%)

Cc1c(C(=O)Nc2nnnn2C)ccc(S(C)(=O)=O)c1[S@+]([O-])CC(C)C [Compound 515]
weeding effect in post-emergence stage, activity level (growth control rate), Amaranthus retroflexus (Amaranthus retroflexus): 5 (Level 5: growth control rate is above 85%)
weeding effect in post-emergence stage, activity level (growth control rate), Echinochloa crusgali (Echinochloa crusgali): 5 (Level 5: growth control rate is above 85%)

Cc1nnc(NC(=O)c2ccc(S(C)(=O)=O)c([S@+]([O-])CC(F)(F)F)c2C)o1 [Compound 500]
weeding effect in post-emergence stage, activity level (growth control rate), Amaranthus retroflexus (Amaranthus retroflexus): 5 (Level 5: growth control rate is above 85%)
weeding effect in post-emergence stage, activity level (growth control rate), Echinochloa crusgali (Echinochloa crusgali): 5 (Level 5: growth control rate is above 85%)

Cc1nnc(NC(=O)c2ccc(S(C)(=O)=O)c([S@+]([O-])CCF)c2C)o1 [Compound 499]
weeding effect in post-emergence stage, activity level (growth control rate), Amaranthus retroflexus (Amaranthus retroflexus): 5 (Level 5: growth control rate is above 85%)
weeding effect in post-emergence stage, activity level (growth control rate), Echinochloa crusgali (Echinochloa crusgali): 5 (Level 5: growth control rate is above 85%)

Cc1nnc(NC(=O)c2ccc(C)c([S@+]([O-])C(C)C)c2C)o1 [Compound 483]
weeding effect in post-emergence stage, activity level (growth control rate), Amaranthus retroflexus (Amaranthus retroflexus): 5 (Level 5: growth control rate is above 85%)
weeding effect in post-emergence stage, activity level (growth control rate), Echinochloa crusgali (Echinochloa crusgali): 5 (Level 5: growth control rate is above 85%)

C#CCN(C(=O)c1ccc(C(F)(F)F)c([S@+]([O-])CC)c1F)c1nnc(C)o1 [Compound 214]
weeding effect in post-emergence stage, activity level (growth control rate), Amaranthus retroflexus (Amaranthus retroflexus): 5 (Level 5: growth control rate is above 85%)
weeding effect in post-emergence stage, activity level (growth control rate), Echinochloa crusgali (Echinochloa crusgali): 5 (Level 5: growth control rate is above 85%)

COc1c(C(=O)Nc2nnc(C)o2)ccc(C(F)(F)F)c1[S@+]([O-])CCc1ccccc1 [Compound 318]
weeding effect in post-emergence stage, activity level (growth control rate), Amaranthus retroflexus (Amaranthus retroflexus): 5 (Level 5: growth control rate is above 85%)
weeding effect in post-emergence stage, activity level (growth control rate), Echinochloa crusgali (Echinochloa crusgali): 5 (Level 5: growth control rate is above 85%)

C=CC[S@@+]([O-])c1c(S(C)(=O)=O)ccc(C(=O)Nc2nnc(C)o2)c1C [Compound 496]
weeding effect in post-emergence stage, activity level (growth control rate), Amaranthus retroflexus (Amaranthus retroflexus): 5 (Level 5: growth control rate is above 85%)
weeding effect in post-emergence stage, activity level (growth control rate), Echinochloa crusgali (Echinochloa crusgali): 5 (Level 5: growth control rate is above 85%)

Cc1nnc(NC(=O)c2ccc(C(C)C)c([S@@+](C)[O-])c2C)o1 [Compound 486]
weeding effect in post-emergence stage, activity level (growth control rate), Amaranthus retroflexus (Amaranthus retroflexus): 5 (Level 5: growth control rate is above 85%)
weeding effect in post-emergence stage, activity level (growth control rate), Echinochloa crusgali (Echinochloa crusgali): 5 (Level 5: growth control rate is above 85%)

CCCCCCC[S@@+]([O-])c1c(C(F)(F)F)ccc(C(=O)Nc2nnc(C)o2)c1F [Compound 14]
weeding effect in post-emergence stage, activity level (growth control rate), Amaranthus retroflexus (Amaranthus retroflexus): 5 (Level 5: growth control rate is above 85%)
weeding effect in post-emergence stage, activity level (growth control rate), Echinochloa crusgali (Echinochloa crusgali): 5 (Level 5: growth control rate is above 85%)

Cc1ccc(C(=O)Nc2nnnn2C)c(C)c1[S@+]([O-])CC(C)C [Compound 477]
weeding effect in post-emergence stage, activity level (growth control rate), Amaranthus retroflexus (Amaranthus retroflexus): 5 (Level 5: growth control rate is above 85%)
weeding effect in post-emergence stage, activity level (growth control rate), Echinochloa crusgali (Echinochloa crusgali): 5 (Level 5: growth control rate is above 85%)

Cc1nnc(NC(=O)c2ccc(C(F)(F)F)c([S@@+]([O-])C(=O)N(C)C)c2F)o1 [Compound 176]
weeding effect in post-emergence stage, activity level (growth control rate), Amaranthus retroflexus (Amaranthus retroflexus): 5 (Level 5: growth control rate is above 85%)
weeding effect in post-emergence stage, activity level (growth control rate), Echinochloa crusgali (Echinochloa crusgali): 5 (Level 5: growth control rate is above 85%)

Cc1nnc(NC(=O)c2ccc(C(F)(F)F)c([S@+]([O-])CCC(C)(C)C)c2F)o1 [Compound 13]
weeding effect in post-emergence stage, activity level (growth control rate), Amaranthus retroflexus (Amaranthus retroflexus): 5 (Level 5: growth control rate is above 85%)
weeding effect in post-emergence stage, activity level (growth control rate), Echinochloa crusgali (Echinochloa crusgali): 5 (Level 5: growth control rate is above 85%)

Cc1nnc(NC(=O)c2ccc(C)c([S@+]([O-])CC(F)(F)F)c2C)o1 [Compound 485]
weeding effect in post-emergence stage, activity level (growth control rate), Amaranthus retroflexus (Amaranthus retroflexus): 5 (Level 5: growth control rate is above 85%)
weeding effect in post-emergence stage, activity level (growth control rate), Echinochloa crusgali (Echinochloa crusgali): 5 (Level 5: growth control rate is above 85%)

Cc1nnc(NC(=O)c2ccc(S(C)(=O)=O)c([S@+]([O-])CC(C)F)c2C)o1 (stereo partly shown) [Compound 501]
weeding effect in post-emergence stage, activity level (growth control rate), Amaranthus retroflexus (Amaranthus retroflexus): 5 (Level 5: growth control rate is above 85%)
weeding effect in post-emergence stage, activity level (growth control rate), Echinochloa crusgali (Echinochloa crusgali): 5 (Level 5: growth control rate is above 85%)

CC[S@@+]([O-])c1c(C(F)(F)F)ccc(C(=O)Nc2nocc2C)c1OC [Compound 458]
weeding effect in post-emergence stage, activity level (growth control rate), Amaranthus retroflexus (Amaranthus retroflexus): 5 (Level 5: growth control rate is above 85%)
weeding effect in post-emergence stage, activity level (growth control rate), Echinochloa crusgali (Echinochloa crusgali): 5 (Level 5: growth control rate is above 85%)

COc1c(C(=O)Nc2nnc(C)o2)ccc(C(F)(F)F)c1[S@+]([O-])CC(C)=O [Compound 351]
weeding effect in post-emergence stage, activity level (growth control rate), Amaranthus retroflexus (Amaranthus retroflexus): 5 (Level 5: growth control rate is above 85%)
weeding effect in post-emergence stage, activity level (growth control rate), Echinochloa crusgali (Echinochloa crusgali): 5 (Level 5: growth control rate is above 85%)

CC[S@@+]([O-])c1c(C(F)(F)F)ccc(C(=O)N(C(=O)OC)c2nnc(C)o2)c1F [Compound 231]
weeding effect in post-emergence stage, activity level (growth control rate), Amaranthus retroflexus (Amaranthus retroflexus): 5 (Level 5: growth control rate is above 85%)
weeding effect in post-emergence stage, activity level (growth control rate), Echinochloa crusgali (Echinochloa crusgali): 5 (Level 5: growth control rate is above 85%)
